These results are taken from publication PMC4851326, “Pharmacologic Comparison of Clinical Neutral Endopeptidase Inhibitors in a Rat Model of Acute Secretory Diarrhea” (The Journal of Pharmacology and Experimental Therapeutics, 2016).

The target of one assay is T1, ECE-1 (Homo sapiens, UniProt P42892).
T1 construct: purchased R&D Systems (Minneapolis, MN)
T1 sequence (P42892 1-770): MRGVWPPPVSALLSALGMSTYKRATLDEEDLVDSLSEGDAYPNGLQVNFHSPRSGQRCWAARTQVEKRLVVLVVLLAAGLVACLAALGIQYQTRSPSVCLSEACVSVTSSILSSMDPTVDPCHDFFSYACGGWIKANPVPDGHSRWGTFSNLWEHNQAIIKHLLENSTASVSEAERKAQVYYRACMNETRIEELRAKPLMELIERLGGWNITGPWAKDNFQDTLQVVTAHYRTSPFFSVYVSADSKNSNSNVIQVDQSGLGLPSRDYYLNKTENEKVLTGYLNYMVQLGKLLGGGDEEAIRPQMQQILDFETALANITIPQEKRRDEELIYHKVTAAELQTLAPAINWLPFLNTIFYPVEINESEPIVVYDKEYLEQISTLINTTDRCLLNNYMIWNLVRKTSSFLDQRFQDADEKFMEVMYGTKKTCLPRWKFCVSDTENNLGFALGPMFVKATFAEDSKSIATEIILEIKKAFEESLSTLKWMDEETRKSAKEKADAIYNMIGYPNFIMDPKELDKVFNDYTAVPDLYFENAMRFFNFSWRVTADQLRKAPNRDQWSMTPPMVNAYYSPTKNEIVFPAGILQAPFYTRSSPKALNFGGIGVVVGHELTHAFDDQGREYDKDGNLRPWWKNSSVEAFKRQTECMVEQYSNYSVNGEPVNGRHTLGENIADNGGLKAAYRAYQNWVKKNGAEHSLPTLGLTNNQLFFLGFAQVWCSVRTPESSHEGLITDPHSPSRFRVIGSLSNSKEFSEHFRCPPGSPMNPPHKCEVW
The assay can be described thus: biochemical. Particulars: recombinant purified human enzyme; for prodrugs the active form was tested. The protocol:
(§1) Purified recombinant human enzymes were purchased from R&D Systems (Minneapolis, MN). […] Each substrate was diluted to 100 μM in the assay buffer recommended for each enzyme by the supplier. […] To these, 5 μl of diluted enzyme was added, followed by 10 μl of the quenched peptide substrate. The plates were incubated at 37°C until at least 10% substrate turnover or 5 μM product had formed. Fluorescence was measured using a Tecan Safire II (Excitation 320 nm/Emission 420 nm). Each plate included a standard curve of reaction product and positive (no enzyme) and negative (dimethyl sulfoxide vehicle) controls. Dose-response data were plotted and inhibition values (IC50) determined by linear regression analysis using GraphPad Prism (GraphPad Software, La Jolla, CA).

The target of the next assay is T2, ACE (Homo sapiens, UniProt P12821).
T2 construct: purchased R&D Systems (Minneapolis, MN)
The assay can be described thus: Purified peptidase assay, ACE. Particulars: recombinant purified human enzyme; for prodrugs the active form was tested. Type of assay: biochemical. On the procedure:
as §1

In another assay the target is T3, aminopeptidase N (Homo sapiens, UniProt P15144).
T3 construct: purchased R&D Systems (Minneapolis, MN)
The assay can be described thus: Purified peptidase assay, APN. It is filed as biochemical. Particulars: recombinant purified human enzyme; for prodrugs the active form was tested. On the procedure:
as §1

The next assay concerns the target T4, NEP (Rattus norvegicus, UniProt P07861).
T4 construct: NEP enzyme activity was measured in tissue homogenates; from tissue; host or cells: Wistar rat kidney, lung, duodenum, jejunum homogenates
T4 sequence (P07861 1-750): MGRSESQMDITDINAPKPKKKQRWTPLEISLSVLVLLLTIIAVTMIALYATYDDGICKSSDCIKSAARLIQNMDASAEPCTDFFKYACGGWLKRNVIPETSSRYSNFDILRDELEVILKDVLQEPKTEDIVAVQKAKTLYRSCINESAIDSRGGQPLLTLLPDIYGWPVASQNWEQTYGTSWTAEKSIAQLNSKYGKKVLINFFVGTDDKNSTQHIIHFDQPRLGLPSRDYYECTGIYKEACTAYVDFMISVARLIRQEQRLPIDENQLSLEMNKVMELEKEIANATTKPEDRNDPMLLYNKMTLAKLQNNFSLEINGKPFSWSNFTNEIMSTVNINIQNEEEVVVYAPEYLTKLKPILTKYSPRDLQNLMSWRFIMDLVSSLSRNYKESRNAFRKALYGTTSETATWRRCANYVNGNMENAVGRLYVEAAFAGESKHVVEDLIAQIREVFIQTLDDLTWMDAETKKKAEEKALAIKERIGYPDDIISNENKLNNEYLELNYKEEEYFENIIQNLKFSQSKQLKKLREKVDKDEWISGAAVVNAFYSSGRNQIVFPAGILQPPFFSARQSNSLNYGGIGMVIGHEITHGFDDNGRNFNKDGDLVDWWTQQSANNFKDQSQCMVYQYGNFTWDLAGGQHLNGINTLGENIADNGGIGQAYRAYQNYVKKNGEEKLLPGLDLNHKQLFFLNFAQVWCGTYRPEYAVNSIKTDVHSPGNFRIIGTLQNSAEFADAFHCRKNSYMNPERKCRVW
The assay can be described thus: NEP enzyme activity in tissues after oral treatment. Type of assay: in vivo. Particulars: 5 hours postdose, single oral dose, rats. On the procedure: Four or five 2-mm Zirconia beads (Biospec, Bartlesville, OK) were added to fresh weighed tissue specimens (50–250 mg). Assay buffer consisting of 50 mM Tris-HCl (pH 7.4), 200 mM NaCl, and 0.05% TritonX-100 was added (4 μl/mg), and the sample was homogenized for 1 minute using a bead beater (Biospec). Stored frozen homogenates were thawed at room temperature and centrifuged 10 minutes at 18,000g, and the protein concentration was determined for each supernatant. […] NEP substrate 2Abz-dArg-Gly-Leu-C2-Dnp (American Peptide, Sunnyvale, CA) was prepared at 1 mM in 20% acetonitrile/water and diluted to 100 μM in assay buffer, and 10 μl was dispensed to homogenate-containing wells. […] Kinetic data were plotted to determine the rate of product formation by linear regression with interpolation against a standard curve, and the rate was normalized to protein concentration.

Broadly, the IC50 is the concentration at which inhibition is half-maximal.

A value given as a limit tells only on which side of the number the result lay.

T3 sequence (P15144 whole entry): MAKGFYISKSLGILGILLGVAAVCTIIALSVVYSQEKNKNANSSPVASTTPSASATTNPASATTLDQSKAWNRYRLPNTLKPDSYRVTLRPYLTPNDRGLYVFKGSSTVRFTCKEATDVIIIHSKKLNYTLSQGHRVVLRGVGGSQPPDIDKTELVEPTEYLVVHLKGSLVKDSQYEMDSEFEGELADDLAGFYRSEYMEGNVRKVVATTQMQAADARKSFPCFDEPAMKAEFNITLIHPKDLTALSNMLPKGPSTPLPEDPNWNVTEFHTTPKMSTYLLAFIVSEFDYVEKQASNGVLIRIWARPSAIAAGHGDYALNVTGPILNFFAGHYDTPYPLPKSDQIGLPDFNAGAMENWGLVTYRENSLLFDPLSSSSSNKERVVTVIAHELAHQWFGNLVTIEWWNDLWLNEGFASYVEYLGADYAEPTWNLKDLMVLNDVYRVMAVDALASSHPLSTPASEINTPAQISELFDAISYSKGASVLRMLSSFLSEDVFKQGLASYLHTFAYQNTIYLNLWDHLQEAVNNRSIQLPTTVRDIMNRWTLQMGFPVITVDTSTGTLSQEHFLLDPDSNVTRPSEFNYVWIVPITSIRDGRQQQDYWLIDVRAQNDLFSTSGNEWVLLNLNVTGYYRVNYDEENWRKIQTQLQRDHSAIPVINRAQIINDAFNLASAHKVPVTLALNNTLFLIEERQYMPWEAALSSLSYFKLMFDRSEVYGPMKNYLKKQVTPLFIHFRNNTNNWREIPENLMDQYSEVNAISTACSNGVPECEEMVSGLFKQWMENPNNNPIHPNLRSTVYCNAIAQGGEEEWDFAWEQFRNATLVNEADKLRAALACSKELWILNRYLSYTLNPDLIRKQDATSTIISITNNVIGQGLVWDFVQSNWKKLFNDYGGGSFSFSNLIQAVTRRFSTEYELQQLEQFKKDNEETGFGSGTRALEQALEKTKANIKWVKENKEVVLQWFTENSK
T2 sequence (P12821 30-1306): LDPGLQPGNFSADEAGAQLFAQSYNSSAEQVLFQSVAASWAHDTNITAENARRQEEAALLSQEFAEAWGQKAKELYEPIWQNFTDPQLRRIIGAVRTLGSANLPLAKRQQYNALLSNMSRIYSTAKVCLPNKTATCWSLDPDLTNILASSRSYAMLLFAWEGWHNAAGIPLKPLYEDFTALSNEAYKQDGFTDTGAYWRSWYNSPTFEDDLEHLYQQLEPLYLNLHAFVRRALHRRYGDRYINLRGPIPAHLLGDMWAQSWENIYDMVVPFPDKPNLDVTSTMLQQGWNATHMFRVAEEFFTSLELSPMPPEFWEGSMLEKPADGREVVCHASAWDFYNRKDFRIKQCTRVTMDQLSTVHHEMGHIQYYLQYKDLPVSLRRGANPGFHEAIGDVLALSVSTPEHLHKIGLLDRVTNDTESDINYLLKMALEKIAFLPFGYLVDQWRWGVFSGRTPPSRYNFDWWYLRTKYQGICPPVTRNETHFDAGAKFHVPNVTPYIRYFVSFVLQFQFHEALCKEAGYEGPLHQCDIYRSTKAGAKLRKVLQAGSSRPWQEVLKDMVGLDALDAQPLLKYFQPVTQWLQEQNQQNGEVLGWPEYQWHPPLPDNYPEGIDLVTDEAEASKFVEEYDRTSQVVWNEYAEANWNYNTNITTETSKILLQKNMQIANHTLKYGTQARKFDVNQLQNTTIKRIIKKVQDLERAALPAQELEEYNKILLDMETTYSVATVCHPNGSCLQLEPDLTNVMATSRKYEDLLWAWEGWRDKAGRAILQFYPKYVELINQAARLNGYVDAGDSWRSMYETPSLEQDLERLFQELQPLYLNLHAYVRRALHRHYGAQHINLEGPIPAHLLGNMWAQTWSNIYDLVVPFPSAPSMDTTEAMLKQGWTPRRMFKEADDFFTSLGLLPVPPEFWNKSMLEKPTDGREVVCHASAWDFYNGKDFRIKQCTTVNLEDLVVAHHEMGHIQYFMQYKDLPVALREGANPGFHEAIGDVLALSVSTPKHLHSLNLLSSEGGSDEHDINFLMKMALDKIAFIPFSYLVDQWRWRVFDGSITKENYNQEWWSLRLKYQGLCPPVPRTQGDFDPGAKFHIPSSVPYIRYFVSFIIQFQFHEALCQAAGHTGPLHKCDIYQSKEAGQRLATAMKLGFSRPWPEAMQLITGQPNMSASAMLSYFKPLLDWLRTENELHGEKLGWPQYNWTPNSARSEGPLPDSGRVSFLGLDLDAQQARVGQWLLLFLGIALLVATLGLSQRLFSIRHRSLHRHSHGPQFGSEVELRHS

In the case of `Cc1nc2ccc(CCCNC(=O)C3(C[C@@H](C)C(=O)O)CCCC3)cc2s1` [UK-505,749, (R)-2-methyl-3-(1-((3-(2-methylbenzo[d]thiazol-6-yl)propyl)carbamoyl)cyclopentyl)propanoic acid], the IC50 on ECE-1 was 3.3 µM; at ACE it was over 100 µM; at aminopeptidase N, over 100 µM. The entries for the “Inhibition of NEP in the intestinal segments” value at NEP and on NEP (listed as UK-505,797) were over 92% and at least 97%, respectively.
